The values that follow come from PubChem BioAssay (NCI).

Common to all, as to assay: growth of human tumour cells (NCI), 48 h
Assay [1] deals with M14 melanoma.
For assay [2], the system named is SK-MEL-28 melanoma.
The subject of assay [3] is MCF7 breast.
Assay [4] has as its system SK-OV-3 ovarian.
Assay [5] relates to SK-MEL-5 melanoma.
Assay [6] deals with NCI-H226 lung.
The test system of assay [7] is RPMI-8226 leukemia.
In assay [8] the test system is LOX IMVI melanoma.
Assay [9] deals with NCI-H460 lung.
The test system of assay [10] is MDA-N.
The subject of assay [11] is HCT-116 colon.
Assay [12] deals with SNB-19 CNS.
Assay [13] has as its system HL-60(TB) leukemia.
Assay [14] has as its system SF-539 CNS.

Where “and” joins values, the source holds several entries; their conditions need not be identical. Equal entries are not always repeated.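 A five-concentration, 48-hour dose response in 96-well plates underlies each endpoint, interpolated linearly between surrounding concentrations. The concentration for 50% growth inhibition is given as GI50. At the TGI there is no net growth.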

Consider `CC1(C)[C@@H]2C[C@H]1c1cnc(-c3ccccn3)cc1[C@H]2C(O)[C@@H]1c2cc(-c3ccccn3)ncc2[C@H]2C[C@@H]1C2(C)C` (stereo partly specified), for which the TGI in assay [1] was 1.85 µM; in assay [2], 29.7 µM; in assay [3], 13.5 µM; in assay [4], 14.8 µM; in [5], 1.42 µM; in [6], 0.502 µM. Moreover, the TGI in assay [7] amounted to 1.93 µM; in assay [8] it was 4.52 µM; in assay [9], 24.3 µM; in [10] it was 11 µM; in assay [11], 5.34 µM; in [12], 15.5 µM. The same compound gave a TGI in assay [13] of 0.112 µM.

Consider `CC1(C)OC(CCO)CN1C(=O)OCc1ccccc1` (stereo unspecified), for which the TGI in [1], in [2], in assay [3], in assay [4], in [5] and in [14] was greater than 100 µM throughout. Also, the TGI in assay [6], in [7], in assay [8], in assay [9], in assay [10] and in [11] was greater than 100 µM each time. Also, the TGI in assay [12] and in [13] was greater than 100 µM in each case.

Consider `COc1cc2nc(-c3c(F)cccc3F)n(Cc3c(F)cccc3F)c2cc1Cc1c(F)cccc1F`, for which the TGI in assay [1] is greater than 100 µM; in [2], 1.4 µM; in assay [3] it was greater than 63.9 µM; in assay [4] it was greater than 100 µM; in assay [5], greater than 100 µM; in assay [14] it was greater than 100 µM. The TGI in [6], in assay [7], in [8], in [9], in [10] and in assay [11] was greater than 100 µM in each case. Moreover, the TGI in assay [12] and in [13] was greater than 100 µM each time.

`O=[N+]([O-])c1ccc2nc3c(nc2c1)-c1c2ccccc2cc2cccc-3c12`: the TGI is greater than 91.7 µM in [1]; greater than 100 µM in assay [2]; greater than 100 µM in [3]; 60.9 µM in [4]; greater than 100 µM in assay [5]; 40.5 µM in assay [14]. Moreover, the TGI is greater than 100 µM in assay [6]; 98.8 µM in [7]; greater than 23.6 µM in assay [8]; greater than 100 µM in [9]; 47.9 µM in [10]; greater than 100 µM in [11]. Further, the TGI in assay [12] was greater than 54.5 µM; in assay [13] it was greater than 100 µM.

Turning to `COc1cc2c(cc1O)CC[n+]1cc3c(OC)c(OC)ccc3cc1-2`, the TGI in assay [1], in assay [2], in assay [3], in assay [4], in [5] and in assay [14] was greater than 100 µM in each case. In addition, the TGI in [6], in assay [7], in assay [8], in assay [9], in [10] and in assay [11] was greater than 100 µM each time. Also, the TGI in assay [12] and in [13] was greater than 100 µM throughout.

Take `C[C@@H]1C(=O)CC2(O)[C@@]13C[C@@H](OC(=O)[C@@H]3O)[C@@H](C)[C@@]21COC1=O` (stereo partly specified): the TGI in assay [1], in assay [2], in [3], in [4], in assay [5] and in assay [14] was greater than 100 µM in each case. The TGI in [6], in [7], in assay [8], in [9], in assay [10] and in assay [11] was greater than 100 µM each time. For the same compound, the TGI in assay [12] and in assay [13] was greater than 100 µM throughout.

In the case of `COCC(=O)OC1CCn2c1nc1c2C(=O)C(C)=C(NC(C)=O)C1=O` (stereo unspecified), the TGI in [1] is 21.7 µM; in assay [2], 28.6 µM; in assay [3], 3.53 µM and 3.75 µM; in [4], 34.3 µM; in assay [5], 26.8 µM; in [14] it was 3.85 µM and 9.32 µM. For the same compound, the TGI in assay [6] is 23.5 µM; in assay [7], 4.76 µM and 9.5 µM; in [8], 13.2 µM; in [9], 38.2 µM; in [10] it was 3.39 µM and 3.4 µM; in assay [11], 10.4 µM. In addition, the results for the TGI in assay [12] and in assay [13] were 40.5 µM and 3.68 µM, respectively. The GI50 in [14] was 2140 nM; in assay [6], 9.33 µM; in assay [8] it was 2810 nM; in assay [11] it was 4.08 µM.

In the case of `N/C(CSCCSC/C(N)=N/O)=N\O`, the TGI in assay [1], in [2], in assay [3], in assay [4], in [5] and in assay [14] was greater than 100 µM in each case. Moreover, the TGI in assay [6], in assay [7], in [8], in assay [9], in assay [10] and in [11] was greater than 100 µM throughout. The TGI in assay [12] and in [13] was greater than 100 µM each time.

As for `COC(=O)C1=C(C(=O)OC)C2(C)CCC(=O)C1O2` (stereo unspecified), the TGI in [1], in [2], in assay [3], in assay [4], in assay [5] and in assay [14] was greater than 10 µM throughout. Moreover, the TGI in assay [6], in assay [7], in assay [8], in [9], in assay [10] and in assay [11] was greater than 10 µM each time. In addition, the TGI in assay [12] and in assay [13] was greater than 10 µM in each case.

For `C=C1CC=CC(C)(C)C1C/C=C(\C)C(O)CBr` (stereo unspecified), the TGI in assay [1], in assay [2], in assay [3], in [4], in assay [5] and in [14] was greater than 100 µM in each case. The TGI was greater than 100 µM in assay [6]; 66.8 µM in assay [7]; 53.5 µM in [8]; greater than 100 µM in assay [9]; greater than 100 µM in assay [10]; greater than 100 µM in assay [11]. The TGI in [12] and in assay [13] was greater than 100 µM in each case.

For `COC(=O)C(CCSC)NC(=O)CSc1nnc(COc2ccc(Cl)cc2)n1-c1ccccc1` (stereo unspecified), the TGI was found to be 33.5 µM in assay [1]; 33.8 µM in [2]; 41.8 µM in assay [3]; 43.2 µM in assay [4]; 32.7 µM in assay [5]; 33.7 µM in assay [14]. In addition, the TGI was 43.3 µM in assay [6]; 34.5 µM in [7]; 32.4 µM in assay [8]; 29.8 µM in assay [9]; 34.1 µM in assay [10]; 30.7 µM in assay [11]. The figures for the TGI in assay [12] and in assay [13] were 47.1 µM and 38.6 µM, respectively.

On to `Cc1ccc2c(c1)C(=O)/C(=C\c1ccc(Cl)cc1)CCS2(=O)=O`, for which the TGI in assay [1] is greater than 34.4 µM; in assay [2], 13.5 µM; in assay [3], 14 µM; in assay [4], 22.4 µM; in assay [5] it was 7.8 µM; in [14], 4.52 µM. The TGI in assay [6] is 14.2 µM; in [7], 4.81 µM; in [8], 6.43 µM; in [9] it was 5.02 µM; in [10], greater than 36.5 µM; in assay [11], 3.51 µM. Moreover, the TGI in assay [12] amounted to 6.82 µM; in assay [13], 5.26 µM.

For `CCOC(=O)Cc1nn2c(=O)cc(C)nc2s1`, the TGI in assay [1], in assay [2], in assay [3], in [4], in [5] and in [14] was greater than 100 µM throughout. Further, the TGI in assay [6], in assay [7], in assay [8], in [9], in assay [10] and in assay [11] was greater than 100 µM in each case. Further, the TGI in assay [12] and in assay [13] was greater than 100 µM in each case.

As for `CN(C)c1nc(=NCc2ccccn2)ss1`, the TGI in [1], in [2], in assay [3], in assay [4], in assay [5] and in [14] was greater than 10 µM each time. Besides, the TGI is greater than 10 µM in [6]; greater than 10 µM in assay [7]; 6.46 µM in assay [8]; greater than 10 µM in assay [9]; greater than 10 µM in assay [10]; greater than 10 µM in assay [11]. The figures for the TGI in [12] and in [13] were greater than 10 µM and 4.95 µM, respectively.

As for `CC1OC(n2cc(F)c(=O)[nH]c2=O)C(O[Si](C)(C)C(C)(C)C)C1O[Si](C)(C)C(C)(C)C` (stereo unspecified), the TGI in assay [1] is 45 µM; in assay [3], 35.7 µM; in assay [4], 32 µM; in assay [5], 28.2 µM; in assay [14] it was 28.7 µM; in assay [6] it was 31.1 µM. Moreover, the TGI stood at 35.4 µM in assay [7]; 42 µM in [8]; 29.3 µM in [10]; 26.8 µM in assay [11]; 30.1 µM in [12]; 45.1 µM in assay [13].

In the case of `CC/C=C\C/C=C\C/C=C\CCCCCCCC(=O)OC(COC(=O)CCCCCCCCCCCCCCCCC)COC1OC(CO)C(O)C(O)C1O` (stereo unspecified), the TGI in [1], in assay [2], in assay [3], in assay [4], in assay [5] and in assay [6] was greater than 25 µM each time. In addition, the TGI in assay [7], in [8], in [9], in assay [10], in [11] and in assay [12] was greater than 25 µM in each case. Also, in [13], the TGI was greater than 25 µM.

As for `C(=N/Nc1ccc(-c2nc3ccccc3[nH]2)cc1)/c1c(-c2ccccc2)[nH]c2ccccc12`, the TGI in assay [1] was greater than 100 µM; in assay [2] it was greater than 100 µM; in assay [3], greater than 100 µM; in assay [4], 20.5 µM; in [5] it was greater than 100 µM; in assay [14], 55.2 µM. Also, the TGI was 6.47 µM in assay [6]; 0.82 µM in [7]; greater than 100 µM in [8]; 32.3 µM in assay [9]; 0.185 µM in [10]; 16.8 µM in assay [11]. In assay [13], this compound registered a TGI of 1.06 µM.

For `CC12CCC(C/C1=N\NC(N)=O)C2(C)C` (stereo unspecified), the TGI in [1], in assay [2], in assay [3], in assay [4], in assay [5] and in assay [6] was greater than 100 µM throughout. Besides, the TGI in assay [7], in assay [8], in assay [9], in assay [10], in assay [11] and in assay [12] was greater than 100 µM throughout. In [13], this compound showed a TGI greater than 100 µM.

On to `O=C(NCCCNCCCCNCCCNC(=O)C(F)(F)F)C(F)(F)F`, for which the TGI in assay [1], in assay [2], in assay [3], in assay [4], in assay [5] and in [14] was greater than 100 µM throughout. In addition, the TGI in [6], in assay [7], in [8], in assay [9], in assay [10] and in assay [11] was greater than 100 µM each time. The compound also had a TGI in assay [13] greater than 100 µM.

As for `O=c1c(Cc2ccccc2)c(-c2ccccc2)[nH]n1C1=NCCN1`, the TGI in [1], in assay [3], in assay [4], in assay [5], in [14] and in assay [6] was greater than 100 µM throughout. The TGI in assay [7] is greater than 100 µM; in assay [8], 38.1 µM; in [9] it was greater than 100 µM; in [10], greater than 100 µM; in assay [11] it was 66.7 µM; in [12], greater than 100 µM. The compound further came in with a TGI in assay [13] greater than 100 µM.
